Among the data in the NIST ThermoML archive (doi:10.1016/j.fluid.2011.04.001) are mass density and refractive index values, retold here.

± gives the expanded uncertainty stated by the source.

The nature of data set [1]: xn = mol fraction of the nth substance listed. The settings on record: 298.15 K, 101 kPa, Liquid, Vibrating tube method.
The conditions of data set [2]: 298.15 K; 101.33 kPa; Liquid; Vibrating tube method.
Data set [3] is described as follows: refractive index (Na D-line) (dimensionless). The settings on record: 298.15 K; 101.33 kPa; Liquid; Standard Abbe refractometry.

Regarding `CCOS(=O)(=O)[O-].CCn1cc[n+](C)c1` [1-ethyl-3-methylimidazolium ethyl sulfate] + Cc1ccccc1C, in data set [1] (x2 = 0.142), the mass density amounted to 1207.74 ± 1.5 kg/m3. Take `CCOS(=O)(=O)[O-].CCn1cc[n+](C)c1` [1-ethyl-3-methylimidazolium ethyl sulfate] + CCCCCC: the mass density in data set [1] (x2 = 0.015) was 1234.45 ± 1.5 kg/m3.

For the molecule `CCOS(=O)(=O)[O-].CCn1cc[n+](C)c1` [1-ethyl-3-methylimidazolium ethyl sulfate] + Cc1ccc(C)cc1, the mass density in data set [1] (x2 = 0.123) is 1210.97 ± 1.5 kg/m3. As to `CCOS(=O)(=O)[O-].CCn1cc[n+](C)c1` [1-ethyl-3-methylimidazolium ethyl sulfate] + Cc1cccc(C)c1, the mass density in data set [1] (x2 = 0.119) is on record as 1212.69 ± 1.5 kg/m3. On to `CCOS(=O)(=O)[O-].CCn1cc[n+](C)c1` [1-ethyl-3-methylimidazolium ethyl sulfate], for which the mass density in data set [2] is 1237.23 ± 0.43 kg/m3. For the same molecule, the refractive index in data set [3] amounted to 1.50591 ± 0.0004.

The mass density is the mass of a sample divided by its volume. One may read the refractive index as a measure of how strongly the sample bends light.
